According to patent US20060110401A1, “Mixture of peptides from c and ns3 proteins of the hepatitis c virus and applications thereof” (priority 2002, published 2006):
Read-outs that look alike come from different tables or passages of the source. Residues, ends and D or L forms follow the SMILES beside them.

Columns and labels:
HLA-DP401 (DPB1*0401) = HLA-DP401 (DPB1*0401) (Homo sapiens, UniProt P04440+P20036); test: biochemical; assay type: binding; conditions: DP*0401; read-out: binds with good affinity to DP401
HLA-DP402 (DPB1*0402) = HLA-DP402 (DPB1*0402) (Homo sapiens, UniProt P04440+P20036, A65V/A84D/A85E/L207M); test: biochemical; assay type: binding; conditions: DP*0402; read-out: binds with good affinity to DP402
DR3 = test: DR3
From the text: (§1) Table printed on a drawing sheet, Figure 2
Where the first naming reader finds the target: head: DR3

DR7 = test: DR7
DRB3 = test: DRB3
DRB5 = test: DRB5
DP401 = test: DP401
DP402 = test: DP402
HLA-DR1 (DRB1*0101) = biological target: T1, HLA-DR1 (DRB1*0101) (Homo sapiens, UniProt P01903+P01911, A100R/D57E/F55L/F60I/F76Y/I96L/L162R/M171V/P40L/Q125E/R42F/V115G/Y59C); test: biochemical; assay type: binding; conditions: for IC50: DRB1*0101
T1 construct: endogenous in cells; host or cells: homozygous EBV-transformed human B lymphocyte lines; immunopurified with antibody L243

HLA-DR4 (DRB1*0401) = biological target: T2, HLA-DR4 (DRB1*0401) (Homo sapiens, UniProt P01903+P01911, A100K/A169T/F76Y/I96L/K127E/L162R/M171V/N62H/P40V/Q125Y/R42H/S133A/S149N/S66Y/V115G/V209L/W38E); test: biochemical; assay type: binding; conditions: read-out: binds with good affinity to DR4
T2 construct: endogenous in cells; host or cells: homozygous EBV-transformed human B lymphocyte lines; immunopurified with antibody L243

HLA-DR7 (DRB1*0701) = HLA-DR7 (DRB1*0701) (Homo sapiens, UniProt P01903+P01911, A100R/A102G/A103Q/D57E/D86V/E43K/F76Y/K127E/L162R/M171V/P40G/Q125H/Q99D/R33Q/R42Y/R54Q/S133A/S66F/T210M/V115G/Y107V/Y59L/Y89S); test: biochemical; assay type: binding; conditions: read-out: binds with good affinity to DR7
HLA-DR11 (DRB1*1101) = HLA-DR11 (DRB1*1101) (Homo sapiens, UniProt P01903+P01911, A100R/A169T/A87E/I96F/K41T/L162R/M171V/P40S/Q125H/Q178H/Q39Y/Q99D/R42S/S66Y/T262R/V115G/W38E); test: biochemical; assay type: binding; conditions: read-out: binds with good affinity to DR11
Chain of HLA-DR11 (DRB1*1101) (P01903 26-254 limits assumed, other chains not shown): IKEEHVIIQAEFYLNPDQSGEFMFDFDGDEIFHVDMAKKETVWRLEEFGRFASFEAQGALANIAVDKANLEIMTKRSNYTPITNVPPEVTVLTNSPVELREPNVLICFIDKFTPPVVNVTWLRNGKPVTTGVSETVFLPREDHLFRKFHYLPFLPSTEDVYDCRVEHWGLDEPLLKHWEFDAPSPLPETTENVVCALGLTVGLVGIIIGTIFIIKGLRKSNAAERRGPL

HLA-DR15 (DRB1*1501) = biological target: T3, HLA-DR15 (DRB1*1501) (Homo sapiens, UniProt P01903+P01911); test: biochemical; assay type: binding; conditions: DRB1*1501; read-out: binds with good affinity to DR15
T3 construct: endogenous in cells; host or cells: homozygous EBV-transformed human B lymphocyte lines; immunopurified with antibody L243

HLA-DRB3 (DRB3*0101) = biological target: T4, HLA-DRB3 (DRB3*0101) (Homo sapiens, UniProt P01903+P79483); test: HLA II/peptide binding assay, HLA-DRB3; conditions: read-out: binds with good affinity to DRB3
T4 construct: endogenous in cells; host or cells: homozygous EBV-transformed human B lymphocyte lines; immunopurified with antibody L243

DR1 = test: DR1
DR4 = test: DR4
DR13 = test: DR13
From the text: as §1
Where the first naming reader finds the target: head: DR13

DR15 = test: DR15
DRB4 = test: DRB4
From the text: as §1
Where the first naming reader finds the target: head: DRB4

HLA-DRB4 (DRB4*0101) = biological target: T5, HLA-DRB4 (DRB4*0101) (Homo sapiens, UniProt P01903+P13762, G164S); test: biochemical; assay type: binding; conditions: read-out: binds with good affinity to DRB4
T5 construct: endogenous in cells; host or cells: homozygous EBV-transformed human B lymphocyte lines; immunopurified with antibody L243

HLA-DRB5 (DRB5*0101) = biological target: T6, HLA-DRB5 (DRB5*0101) (Homo sapiens, UniProt P01903+Q30154); test: biochemical; assay type: binding; conditions: read-out: binds with good affinity to DRB5
T6 construct: endogenous in cells; host or cells: homozygous EBV-transformed human B lymphocyte lines; immunopurified with antibody L243

[1] = test system: T lymphocytes derived from PBMCs from patients chronically infected with HCV; assay type: cell-based, human; conditions: supernatant 48 h, —: not detected
[2] = read-out: binds with good affinity to DR1

Row | Structure (SMILES) | IC50 (HLA-DP401 (DPB1*0401)) [nM] | IC50 (HLA-DP402 (DPB1*0402)) [nM] | IC50 (DR3) [nM] | IC50 (DR7) [nM] | IC50 (DRB3) [nM] | IC50 (DRB5) [nM] | IC50 (DP401) [nM] | IC50 (DP402) [nM] | IC50 (HLA-DR1 (DRB1*0101); [2]) [nM] | IC50 (HLA-DR4 (DRB1*0401)) [nM] | IC50 (HLA-DR7 (DRB1*0701)) [nM] | IC50 (HLA-DR11 (DRB1*1101)) [nM] | IC50 (HLA-DR15 (DRB1*1501)) [nM] | IC50 (HLA-DRB3 (DRB3*0101)) [nM] | IC50 (DR13) [nM] | IC50 (DR15) [nM] | IC50 (DRB4) [nM] | other results
1 | CC(C)C[C@H](NC(=O)[C@H](CCCNC(=N)N)NC(=O)[C@@H]1CCCN1C(=O)CNC(=O)[C@H](CCCNC(=N)N)NC(=O)[C@H](CCCNC(=N)N)NC(=O)[C@@H]1CCCN1C(=O)[C@H](CC(C)C)NC(=O)[C@H](CC(C)C)NC(=O)[C@H](Cc1ccc(O)cc1)NC(=O)[C@@H](NC(=O)CNC(=O)CNC(=O)[C@@H](N)C(C)C)C(C)C)C(=O)NCC(=O)N[C@H](C(=O)N[C@@H](CCCNC(=N)N)C(=O)N[C@@H](C)C(=O)N[C@H](C(=O)N[C@@H](CCCNC(=N)N)C(=O)N[C@@H](CCCCN)C(=O)N[C@H](C(=O)N[C@@H](CO)C(=O)N[C@@H](CCC(=O)O)C(=O)N[C@@H](CCCNC(=N)N)C(=O)N[C@@H](CO)C(=O)N[C@@H](CCC(N)=O)C(=O)O)[C@@H](C)O)[C@@H](C)O)C(C)C [2C 31-57] | < 1000 | < 1000 | > 100000 | 500 | > 100000 | 3 | > 100000 | > 100000 |  |  |  |  |  |  |  |  |  | 
2 | CC[C@H](C)[C@H](NC(=O)[C@H](CC(N)=O)NC(=O)[C@@H]1CCCN1C(=O)[C@@H](N)CC(=O)O)C(=O)N[C@@H](CCCNC(=N)N)C(=O)N[C@H](C(=O)NCC(=O)N[C@H](C(=O)N[C@@H](CCCNC(=N)N)C(=O)N[C@H](C(=O)N[C@H](C(=O)N[C@H](C(=O)N[C@H](C(=O)NCC(=O)N[C@@H](CO)C(=O)N1CCC[C@H]1C(=O)N[C@H](C(=O)N[C@H](C(=O)N[C@@H](Cc1ccc(O)cc1)C(=O)N[C@@H](CO)C(=O)N[C@H](C(=O)N[C@@H](Cc1ccc(O)cc1)C(=O)NCC(=O)N[C@@H](CCCCN)C(=O)N[C@@H](Cc1ccccc1)C(=O)N[C@@H](CC(C)C)C(=O)N[C@@H](C)C(=O)N[C@@H](CC(=O)O)C(=O)NCC(=O)NCC(=O)O)[C@@H](C)O)[C@@H](C)O)[C@@H](C)CC)[C@@H](C)O)[C@@H](C)O)[C@@H](C)O)[C@@H](C)O)C(C)C)[C@@H](C)O [19N 1275-1304] (H-DPNIRTGVRTTTTGSPITYSTYGKFLADGG-OH; N-terminus and C-terminus assumed) | < 1000 |  | > 100000 | 113 | 150 | 1300 | 548 | 1820 | < 1000 | < 1000 | < 1000 | < 1000 | < 1000 | < 1000 | > 100000 | 550 | 3500 | IC50 (DR1): 150 nM; IC50 (DR4): 500 nM
3 | CSCC[C@H](NC(=O)[C@H](Cc1ccc(O)cc1)NC(=O)[C@H](C)NC(=O)[C@H](CCCNC(=N)N)NC(=O)[C@H](CC(C)C)NC(=O)[C@H](CCCNC(=N)N)NC(=O)[C@@H](NC(=O)[C@@H](NC(=O)[C@@H](NC(=O)[C@H](CCC(=O)O)NC(=O)[C@H](C)NC(=O)[C@@H]1CCCN1C(=O)[C@@H](NC(=O)[C@H](CC(C)C)NC(=O)[C@H](CCC(=O)O)NC(=O)[C@H](Cc1ccc(O)cc1)NC(=O)[C@H](Cc1c[nH]c2ccccc12)NC(=O)[C@H](C)NC(=O)[C@H](C)NC(=O)CN)[C@@H](C)O)[C@@H](C)O)[C@@H](C)O)C(C)C)C(=O)N[C@@H](CC(N)=O)C(=O)N[C@H](C(=O)N1CCC[C@H]1C(=O)NCC(=O)N[C@@H](CC(C)C)C(=O)N1CCC[C@H]1C(=O)N[C@H](C(=O)N[C@@H](C)C(=O)N[C@@H](CCC(N)=O)C(=O)N[C@@H](CC(=O)O)C(=O)O)C(C)C)[C@@H](C)O [28N 1524-1553] |  | < 1000 |  | 5 |  | 20 |  |  | < 1000 | < 1000 | < 1000 | < 1000 | < 1000 | < 1000 | 10000 | 1 | 30 | IC50 (HLA-DR1 (DRB1*0101); competition with biotinylated tracer HA 306-318, read-out: IC50, binding to HLA-DR1): 2 nM; affinity for HLA-DR1 (in words) (HLA-DR1 (DRB1*0101); legend of FIG. 4): high affinity; IC50 (HLA-DRB4 (DRB4*0101)): < 1000 nM; IC50 (HLA-DRB5 (DRB5*0101)): < 1000 nM; IL2 ([1]; patient 067): — 76 pg/ml; IL10 ([1]; patient 067): 86 pg/mL; IL10 ([1]; patient 078): 21 pg/mL; IL4 ([1]; patient 093): — 11 pg/ml; IL10 ([1]; patient 829): 67 pg/mL
